# Source: paper PMC4482062 (Nucleic Acids Research, 2015)
# Several values for one entry are separate records, joined by “and”; a condition that tells them apart may be missing. Identical values can stand only once.
# How the values were obtained:
# [1] = set-up: method as in PMID 10858319; conditions: in water; cited from earlier work
# CmoB R315A mutant = biological target: T1, CmoB R315A mutant (Escherichia coli, UniProt P76291, R315A); test: Isothermal titration calorimetry, R315A mutant CmoB; assay type: binding
# T1 construct: vector LIC-pET30a) (cleaved yes); made in house; host or cells: Escherichia coli BL21 (DE3)
# Procedure: (§1) CmoB was extensively dialyzed for 24 h against binding buffer (20-mM HEPES, pH 7.5) using a dialysis cassette with 10-kDa MWCO (Pierce). Lyophilized Cx-SAM was dissolved in the binding buffer at a final concentration of 1.3 mM. SAM was purchased from Sigma and dissolved in binding buffer at a final concentration of 10 mM. Prior to use, all titration samples were centrifuged for 20 min at 4°C. Isothermal titration calorimetry (ITC) experiments were performed at 15°C using an auto-ITC200 (MicroCal, LLC, Northhampton, MA, USA) in which the reaction cell (202.8 μl) containing CmoB (50 μM and 370 μM for Cx-SAM and SAM, respectively) was titrated with 40 × 1-μl injections of 1.3-mM Cx-SAM or 6.7-mM SAM with an equilibration time of 180 s. Raw injection traces were integrated over time, normalized per mol of ligand injected and corrected for the heat of dilution obtained from the plateau of a titration curve. Titration data were analyzed using a single-site model in Origin (version X) and Igor Pro 5/6. […] Based on the chemical synthesis, the Cx-SAM utilized in the binding assay is a racemic mixture, of which only the S-isomer is capable of acting as a substrate/ligand for CmoB. Therefore, the stoichiometry was fixed at 1:1 and the activity of the ligand was introduced as a fitting parameter for Cx-SAM.
# CmoB K91A mutant [2] = biological target: T2, CmoB K91A mutant (Escherichia coli, UniProt P76291, K91A); test: In vitro LC-MS-based alkyl transfer assay, K91A CmoB; assay type: biochemical; conditions: Cx-SAM as alkyl donor, after 24 h
# T2 construct: vector LIC-pET30a) (cleaved yes); made in house; host or cells: Escherichia coli BL21 (DE3)
# Procedure: (§2) The assay solution for SAM-dependent mo5U formation contained 10-mM Tris-HCl (pH 8.0), 4-mM MgCl2, 0.2-mM SAM and 20–25 μg (∼20 μM) of total tRNA prepared from cmoB-mutant E. coli cells in 50 μl. Reaction conditions for Cx-SAM-dependent cmo5U formation assay were identical, with the exception that10-μM Cx-SAM was used in place of SAM. Assays were initiated by addition of 0.1–2-μM CmoB to the above mixtures and subsequently incubated at the room temperature. The reaction was terminated by the addition of 0.1-mg/ml P1 nuclease, followed by incubation at 60°C for at least 1 h. […] Hydrolyzed nucleotides were directly applied to HPLC without further processing for LC-MS analysis as described above.
# CmoB = biological target: T3, CmoB (Escherichia coli, UniProt P76291); test: Time course of SAM-dependent mo5U modification ([14CH3]-SAM), competition with Cx-SAM; assay type: biochemical; conditions: 10-μM Cx-SAM, 140 μM [14CH3]-SAM, 90 min
# T3 construct: vector LIC-pET30a) (cleaved yes); made in house; host or cells: Escherichia coli BL21 (DE3)
# Procedure: The assay was initiated by mixing 10-mM Tris (pH 8.0), 4-mM MgCl2, 140-μM [^14CH3]-SAM (Perkin Elmer), 100 μg of total tRNA prepared from cmoB-deficient cells and 2-μM CmoB in 50 μl. In competition assays to measure the effect of Cx-SAM on methylation, 10-μM Cx-SAM was added to the above mixture. […] RNA was washed with 0.2-M ammonium acetate (pH 6.0) using an MWCO 10-kDa filter by centrifugation. This washing step was repeated two more times to remove unreacted ^14C-SAM. RNA was then spotted on a DE81 filter (GE) and air-dried for 20 min. Images of the radioactive tRNA were recorded on a phosphorimaging plate (Molecular Dynamics) for 2 days and analyzed using a Molecular Dynamics Storm 860 PhosphorImager System with ImageQuant software.
# wild-type CmoB [3] = biological target: T4, wild-type CmoB (Escherichia coli, UniProt P76291); test: In vitro LC-MS-based alkyl transfer assay, wild-type CmoB; assay type: biochemical
# T4 construct: vector LIC-pET30a) (cleaved yes); made in house; host or cells: Escherichia coli BL21 (DE3)
# Procedure: as §2
# CmoB Y200A mutant = biological target: T5, CmoB Y200A mutant (Escherichia coli, UniProt P76291, Y200A); test: Isothermal titration calorimetry, Y200A mutant CmoB; assay type: binding
# T5 construct: vector LIC-pET30a) (cleaved yes); made in house; host or cells: Escherichia coli BL21 (DE3)
# Procedure: as §1
# CmoB K91A mutant [4] = biological target: T2, CmoB K91A mutant; test: Isothermal titration calorimetry, K91A mutant CmoB; assay type: binding
# Procedure: as §1
# The titration curve was analyzed using macroscopic binding constants and enthalpies describing binding of n-molecules of Cx-SAM to tetrameric mutant CmoB. Initially, the titration curve was analyzed with all possible values of n (=1~4). […] Therefore, the titration curve was analyzed using three sets of binding constants and enthalpies (Supplementary Table 2). The fitted values of the macroscopic binding constants were compared to those expected for a case of non-cooperative binding. For both cooperative and non-cooperative binding, K1 is given by 4Ksite where 4 accounts for the number of ligand binding sites in teterameric CmoB (i.e., statistical factor) and Ksite describes the “intrinsic” affinity of each site. Then, Ksite=3.6x10^4 M^-1. The fitted value of K2 is ~ 8.4-fold higher than that calculated for the case of non-cooperative binding (6Ksite^2=7.7x10^9 M^-2), indicating positive cooperativity involved in binding of the second Cx-SAM. Since the population of K91A with three Cx-SAMs bound is negligible, binding of the third Cx-SAM is deduced to be negatively cooperative.
# A possible molecular explanation for such heterogeneous cooperativity involved in the interaction between K91A and Cx-SAM is the presence of (at least) two different types of interface between the subunits in tetrameric K91A which is consistent with the structural model of the CmoB tetramer. In this model (Supplementary Figure 9), the four ligand binding sites are initially equivalent, but binding of the first ligand to any of these four sites differentially affects (increases and decreases) the affinities of the neighboring sites for the second ligand through the different subunit interfaces. This model is a variation of the classical “square” model used in the analysis of the interaction between hemoglobin and oxygen(2) and provides a molecular description of the fitted macroscopic binding constants in terms of the intrinsic affinity (Ksite) and two types of cooperativity (ω+ and ω-): K1=4Ksite; K2=2Ksite^2(1+ω++ω-); K4=Ksite^4(ω+ω-)^2. Then, Ksite=3.6x10^4 M^-1, ω+=23.8, and ω-=0.4. The value of ω is equivalent to a fold-change in the Cx-SAM affinity of a binding site in tetrameric K91A when its neighboring site is already occupied by Cx-SAM.
# ^aIn this model, the interaction is described by a set of binding events where n-molecules of Cx-SAM bind tetrameric CmoB (K91A) with the corresponding binding constants (Kn) and enthalpies (∆Hn°). Initially, the titration curve was analyzed by this model including all possible values of n (=1~4). […] Therefore, the titration curve was analyzed using three sets of binding constants and enthalpies.
# wild-type CmoB [5] = biological target: T4, wild-type CmoB; test: Isothermal titration calorimetry, wild-type CmoB; assay type: binding
# Procedure: as §1
# T5 sequence (P76291 whole entry Y200A): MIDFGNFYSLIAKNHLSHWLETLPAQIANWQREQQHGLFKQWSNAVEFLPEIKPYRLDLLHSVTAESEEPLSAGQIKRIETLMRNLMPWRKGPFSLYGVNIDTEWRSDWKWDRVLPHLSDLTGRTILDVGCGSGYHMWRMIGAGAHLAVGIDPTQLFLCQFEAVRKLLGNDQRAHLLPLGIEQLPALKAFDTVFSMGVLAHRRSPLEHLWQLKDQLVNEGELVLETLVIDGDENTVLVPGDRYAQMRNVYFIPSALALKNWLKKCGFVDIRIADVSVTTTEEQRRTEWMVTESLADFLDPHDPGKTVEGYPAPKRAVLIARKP
# T1 sequence (P76291 whole entry R315A): as the sequence (P76291 whole entry Y200A) above, with A200Y, R315A counted along it
# T4 sequence (P76291 whole entry): as the sequence (P76291 whole entry Y200A) above, with A200Y counted along it
# T2 sequence (P76291 whole entry K91A): as the sequence (P76291 whole entry Y200A) above, with K91A, A200Y counted along it
# T3 sequence (P76291 whole entry): as the sequence (P76291 whole entry Y200A) above, with A200Y counted along it
compound,measurement,setting,value
O=c1[nH]c(=O)n([C@H]2C[C@H](O)[C@@H](CO)O2)cc1O [5-hydroxy-2′-deoxyuridine],pKa of the hydroxyl group on the pyrimidine ring,[1],7.68
"Nc1ncnc2c1ncn2[C@@H]1O[C@H](C[S+](CC[C@H](N)C(=O)[O-])CC(=O)O)[C@@H](O)[C@H]1O (stereo partly drawn) [Cx-SAM, carboxy-S-adenosine-L-methionine]",Kd,CmoB R315A mutant,2.1 ± 0.2 µM
same,K (binding constant),"CmoB R315A mutant; ITC, 15°C, single-site model, R315A",4.7 ± 0.3 × 10^5 M^−1 and 4.7 ± 0.3 x 10^5 M^−1
same,ΔH°,"CmoB R315A mutant; ITC, R315A",-8.5 ± 0.1 kcal/mol
same,Reduction of Cx-SAM binding affinity compared to the wild type,CmoB R315A mutant; R315A vs wild type,4–5 fold
same,ΔG°,"CmoB R315A mutant; ΔG° = −RT lnK, R315A",-7.5 ± 0.1 kcal/mol
same,ΔS°,"CmoB R315A mutant; ΔS° = (ΔH°−ΔG°)/T, R315A",−3.5 ± 0.3 cal/mol/deg
same,cmo5U formation,CmoB K91A mutant [2],No significant cmo5U signal was detected
same,Effect on [14CH3]-SAM methylation of tRNA (radioactive signal),CmoB,no detectable radioactive signal
same,Time to detectable cmo5U formation,"wild-type CmoB [3]; 0.1-μM wild-type CmoB, 10-μM Cx-SAM, tRNA from cmoB-defective cells",9 min
same,Time to detected cmo5U with both donors present,wild-type CmoB [3]; 10-μM Cx-SAM and 2-mM SAM,20 min
same,Kd,CmoB Y200A mutant,1.8 ± 0.3 µM
same,K (binding constant),"CmoB Y200A mutant; ITC, 15°C, single-site model, Y200A",5.5 ± 0.8 × 10^5 M^−1 and 5.5 ± 0.8 x 10^5 M^−1
same,ΔH°,"CmoB Y200A mutant; ITC, Y200A",-7.3 ± 0.1 kcal/mol
same,Specificity ratio K(Cx-SAM)/K(SAM),CmoB Y200A mutant; Y200A,> 65
same,Reduction of Cx-SAM binding affinity compared to the wild type,CmoB Y200A mutant; Y200A vs wild type,4–5 fold
same,ΔG°,"CmoB Y200A mutant; ΔG° = −RT lnK, Y200A",-7.6 ± 0.1 kcal/mol
same,ΔS°,"CmoB Y200A mutant; ΔS° = (ΔH°−ΔG°)/T, Y200A",0.8 ± 0.5 cal/mol/deg
same,K (binding constant),"CmoB K91A mutant [4]; ITC, 15°C, single-site model, K91A",9.0 ± 1.8 × 10^3 M^−1 and 9.0 ± 1.8 x 10^3 M^−1
same,ΔH°,"CmoB K91A mutant [4]; ITC, K91A",-16.5 ± 1.6 kcal/mol
same,Kd,"CmoB K91A mutant [4]; K1 (macroscopic binding constant), tetrameric K91A, 1 ligand bound",7.14 µM
same,Ksite (intrinsic affinity of each site),"CmoB K91A mutant [4]; K1=4Ksite, tetrameric K91A",36000 M⁻¹
same,Kd,"CmoB K91A mutant [4]; Kd, ITC, 15°C, K91A",111 µM and 110 µM
same,ω+ (positive cooperativity factor),"CmoB K91A mutant [4]; square model, tetrameric K91A",23.8
same,ω- (negative cooperativity factor),"CmoB K91A mutant [4]; square model, tetrameric K91A",0.4
same,K2 (macroscopic binding constant),"CmoB K91A mutant [4]; tetrameric K91A, 2 ligands bound",6.5 (± 1.4) x 10^10 M^-2
same,K4 (macroscopic binding constant),"CmoB K91A mutant [4]; tetrameric K91A, 4 ligands bound",1.6 (± 0.5) x 10^20 M^-4
same,Fitted K2 relative to non-cooperative binding,CmoB K91A mutant [4]; vs 6Ksite^2,~ 8.4 fold
same,Fitted K4 relative to non-cooperative binding,CmoB K91A mutant [4]; vs Ksite^4,~ 98.5 fold
same,ΔG°,"CmoB K91A mutant [4]; ΔG° = −RT lnK, K91A",-5.2 ± 0.1 kcal/mol
same,ΔS°,"CmoB K91A mutant [4]; ΔS° = (ΔH°−ΔG°)/T, K91A",−39.3 ± 5.4 cal/mol/deg
same,ΔH°,wild-type CmoB [5]; ITC,-7.9 ± 0.1 kcal/mol
same,Kd,"wild-type CmoB [5]; ITC, 15°C, read-out: Kd",0.4 ± 0.03 µM
same,K (binding constant),"wild-type CmoB [5]; ITC, 15°C, single-site model",2.5 ± 0.2 × 10^6 M^−1 and 2.5 ± 0.2 x 10^6 M^−1
same,TΔS°,"wild-type CmoB [5]; ITC, text",0.55 ± 0.06 kcal/mol
same,ΔG°,"wild-type CmoB [5]; ITC, text",-8.44 ± 0.03 kcal/mol
same,ΔH°,"wild-type CmoB [5]; ITC, text",-7.88 ± 0.05 kcal/mol
same,ΔS°,"wild-type CmoB [5]; ITC, text",1.92 ± 0.21 cal·mol^−1·deg^−1
same,ΔG°,wild-type CmoB [5]; ΔG° = −RT lnK,-8.4 ± 0.1 kcal/mol
same,ΔS°,wild-type CmoB [5]; ΔS° = (ΔH°−ΔG°)/T,1.9 ± 0.2 cal/mol/deg
